Test results taken from PMC6222789, “CF3-Substituted Mollugin 2-(4-Morpholinyl)-ethyl ester as a Potential Anti-inflammatory Agent with Improved Aqueous Solubility and Metabolic Stability” (Molecules : A Journal of Synthetic Chemistry and Natural …, 2018).
Read-outs that look alike come from different tables or passages of the source.

Experiments:
[1] = system: TNF-α-induced adhesion of U937 monocytic cells to HT-29 cells; test: TNF-α-induced colonic epithelial cell adhesion assay; assay type: cell-based, human; conditions: for inhibition at 10 µM: Homo sapiens, Epithelial cell, U937 adhesion to HT-29 cells, TNF-α-induced
Protocol: (§1) Synthesized mollugin derivatives were subjected to the colonic epithelial cell adhesion assay, which mimics the initial stage of colon inflammation. The inhibition of TNF-α-induced or IL-6-induced adhesion of U937 monocytic cells to HT-29 cells in 10 μM solution of synthesized molecules was measured, and the results are summarized in Table 1 and Table 2. Mesalazine (2), a commercially available medication for the treatment of IBD, and mollugin were chosen as assay positive controls.
(§2) HT-29 human colonic epithelial cells and U937 human pre-monocytic cells were grown in RPMI 1640 medium supplemented with 10% FBS, 100 IU/mL penicillin, and 100 µg/mL streptomycin in a humidified incubator under 5% CO2/95% air.
(§3) U937 monocytic cell adhesion to colonic epithelial cells was evaluated using human U937 pre-monocytic cells, which were prelabeled with 2′,7′-bis(2-carboxyethyl)-5(6)-carboxyfluorescein acetoxymethyl ester (BCECF/AM, 10 μg/mL) for 1 h at 37 °C. HT-29 cells cultured in 24-well plates were pretreated with test compound, 5-ASA, or tofacitinib for 1 h prior to incubation with TNF-α (10 ng/mL) and IL-6 (5 ng/mL) for an additional 3 h. Cells were then co-incubated with BCECF/AM-prelabeled U937 cells (1 × 10^6 cells/well) for 30 min at 37 °C. Non-adhering U937 cells were removed, and the HT-29 cells and adherent U937 cells were washed twice with PBS. Images were captured and processed with a Nikon ECLIPSE TE2000-U microscope and NIS-Elements F software (Nikon, Tokyo, Japan). For quantitative analysis, other sets of cells were lysed in 0.1% Triton X-100 in Tris (0.1 M), and the fluorescence was measured using a fluorescence-detecting microplate reader (Promega , Madison, WI, USA) at […]. Experiments were performed in triplicate and repeated at least three times independently.

[2] = system: IL-6-induced adhesion of U937 monocytic cells to HT-29 cells; test: IL-6-induced colonic epithelial cell adhesion assay; assay type: cell-based, human; conditions: for inhibition at 10 µM: Homo sapiens, Epithelial cell, U937 adhesion to HT-29 cells, IL-6-induced
Protocol: as §1, §2, §3

hERG channel = molecular target: T1, hERG channel (Homo sapiens, UniProt Q12809); test: hERG channel binding assay (fluorescence polarization)
T1 construct: purchased Invitrogen PV5365
T1 sequence (Q12809 whole entry): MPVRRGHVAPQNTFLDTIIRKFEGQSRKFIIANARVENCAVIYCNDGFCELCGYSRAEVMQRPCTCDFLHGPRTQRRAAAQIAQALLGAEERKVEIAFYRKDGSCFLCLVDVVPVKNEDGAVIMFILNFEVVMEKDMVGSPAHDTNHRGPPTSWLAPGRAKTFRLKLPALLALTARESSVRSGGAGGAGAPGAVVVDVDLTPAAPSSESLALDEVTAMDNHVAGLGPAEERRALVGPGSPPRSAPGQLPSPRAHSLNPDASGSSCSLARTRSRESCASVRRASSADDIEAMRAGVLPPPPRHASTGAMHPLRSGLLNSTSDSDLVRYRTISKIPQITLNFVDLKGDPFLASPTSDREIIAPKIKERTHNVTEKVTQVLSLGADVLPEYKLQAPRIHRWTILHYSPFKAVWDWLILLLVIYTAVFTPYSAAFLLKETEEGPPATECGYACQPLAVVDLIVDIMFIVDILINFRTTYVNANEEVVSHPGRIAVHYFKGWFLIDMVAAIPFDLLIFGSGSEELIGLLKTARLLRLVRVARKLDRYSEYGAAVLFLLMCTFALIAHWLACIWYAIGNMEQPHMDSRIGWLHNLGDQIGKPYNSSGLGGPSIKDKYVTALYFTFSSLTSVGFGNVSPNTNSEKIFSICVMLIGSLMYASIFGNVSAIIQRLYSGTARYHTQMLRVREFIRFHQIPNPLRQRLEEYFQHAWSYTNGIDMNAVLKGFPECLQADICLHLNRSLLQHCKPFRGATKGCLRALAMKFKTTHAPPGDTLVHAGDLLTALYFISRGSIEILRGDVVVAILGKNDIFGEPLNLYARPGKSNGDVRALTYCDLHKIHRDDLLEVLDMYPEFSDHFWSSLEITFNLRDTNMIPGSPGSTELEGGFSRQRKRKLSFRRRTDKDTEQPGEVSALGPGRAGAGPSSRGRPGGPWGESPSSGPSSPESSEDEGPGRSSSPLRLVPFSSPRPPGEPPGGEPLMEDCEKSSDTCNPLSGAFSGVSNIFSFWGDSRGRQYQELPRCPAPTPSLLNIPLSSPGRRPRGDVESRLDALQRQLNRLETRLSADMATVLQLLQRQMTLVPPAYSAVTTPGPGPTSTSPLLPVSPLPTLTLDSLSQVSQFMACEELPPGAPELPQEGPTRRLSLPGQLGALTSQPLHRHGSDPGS
Protocol: hERG channel binding assay was performed using Invitrogen’s hERG Fluorescence Polarization Assay kit (PV5365) with Synergy Neo plate reader (BioTek, Winooski, VT, USA). The binding assay was carried out according to the kit manufacturer’s instructions.

[3] = Metabolic stability, human liver microsomes; assay type: in vitro ADME; conditions: 1 μM
Protocol: (§4) Pooled human liver microsomes (150 donor) and dog, rat, mouse liver microsomes were obtained from BD Gentest Co. (Woburn, MA, USA). NADPH regeneration system was obtained from Promega. S-Mephenytoin, 4-hydroxymephenytoin, and 1’-hydroxymidazolam were purchased from Ultrafine Chemical Co. (Manchester, UK). All other chemicals and solvents were of the highest grade available. The metabolic stability assay was performed by incubation of human or selected animal liver microsomes (most often dog, rat and mouse), at 37 °C with a test compound at a final concentration of 1 μM, in the presence of 0.5 mg/mL microsomal protein and NADPH regeneration system, in a total volume of 100 μL of 100 mM phosphate buffer, pH 7.4. The incubation was started by the addition of NADPH regeneration system and terminated with 40 μL of ice-cold acetonitrile at 0 and 30 min. Precipitated proteins were removed by centrifugation at 10,000× g for 5 min at 4 °C. Aliquots of the supernatant were injected onto an LC-MS/MS system. Incubations terminated prior to the addition of NADPH regeneration system (time point 0 min) were used as standards, defined as 100%. Percent of the parent compound remaining was calculated by comparing peak area.

[4] = Metabolic stability, dog liver microsomes; assay type: in vitro ADME; conditions: 30 min, 1 μM
Protocol: as §4

[5] = Metabolic stability, rat liver microsomes; assay type: in vitro ADME; conditions: 30 min, 1 μM
Protocol: as §4

[6] = Metabolic stability, mouse liver microsomes; assay type: in vitro ADME; conditions: 30 min, 1 μM
Protocol: as §4

[7] = Plasma stability, human plasma; assay type: in vitro ADME; conditions: 37 °C, 1 μM
Protocol: (§5) The plasma stability assay was performed by incubation of human or rat plasma with a test compound in a final concentration of 1 μM for 120 min at 37 °C. The incubation was terminated by addition of 40 μL of ice-cold acetonitrile and vortexing for 5 min. The precipitated proteins were removed by centrifugation at 14,000× g for 5 min at 4 °C. Aliquots of the supernatant were injected onto a Shimadzu Nexera XR LC system. Percentages of the parent compound remaining were calculated by comparing peak areas using the Xcalibur software (version 1.6.1, Waltham, MA, USA).

[8] = Plasma stability, rat plasma; assay type: in vitro ADME; conditions: 2 h, 37 °C, 1 μM
Protocol: as §5

[9] = human, Invitrogen hERG Fluorescence Polarization Assay kit (PV5365)

Metabolic Stability (% Remain, 30 min) Human [3]	Metabolic Stability (% Remain, 30 min) Dog [4]	Metabolic Stability (% Remain, 30 min) Rat [5]	Metabolic Stability (% Remain, 30 min) Mouse [6]	Plasma Stability (% Remain, 2 h) Human [7]	Plasma Stability (% Remain, 2 h) Rat [8]	SMILES	inhibition at 10 µM [1]	inhibition at 10 µM [2]	IC50 (hERG channel)	IC50 (hERG channel; [9])	inhibition of TNF-α-induced monocyte-epithelial adhesion ([1]; 10 μM)	inhibition of IL-6-induced monocyte-epithelial adhesion ([2]; 10 μM)
100 % Remain	22 % Remain	90 % Remain	70 % Remain	97 % Remain	10 % Remain	COC(=O)c1c2c(c3ccc(C(F)(F)F)cc3c1O)OC(C)(C)C=C2 [14c, Methyl 6-hydroxy-2,2-dimethyl-8-(trifluoromethyl)-2H-benzo[h]chromene-5-carboxylate]	63.2 ± 10.8%	39.3 ± 5.6%				
52 % Remain	52 % Remain	78 % Remain	82 % Remain	39.5 % Remain	2 % Remain	COC(=O)c1c2c(c3ccc(F)cc3c1O)OC(C)(C)C=C2 [14a, Methyl 8-fluoro-6-hydroxy-2,2-dimethyl-2H-benzo[h]chromene-5-carboxylate]	36.1 ± 7.6%	59.4 ± 7.4%				
88 % Remain	4 % Remain	51 % Remain	19 % Remain	100 % Remain	1 % Remain	COC(=O)c1c2c(c3ccc(C)cc3c1O)OC(C)(C)C=C2 [14b, Methyl 6-hydroxy-2,2,8-trimethyl-2H-benzo[h]chromene-5-carboxylate]	29.8 ± 7.2%	23.4 ± 2.5%				
48 % Remain	30 % Remain	8 % Remain	11 % Remain	94 % Remain	81 % Remain	CC1(C)C=Cc2c(C(=O)OCCN3CCOCC3)c(O)c3ccc(F)cc3c2O1 [15d, 2-Morpholinoethyl 9-fluoro-6-hydroxy-2,2-dimethyl-2H-benzo[h]chromene-5-carboxylate]	47 ± 8.9%	75.6 ± 11.5%				
78 % Remain	10 % Remain	9 % Remain	10 % Remain	100 % Remain	91 % Remain	CC1(C)C=Cc2c(C(=O)OCCN3CCOCC3)c(O)c3cc(F)ccc3c2O1 [15a, 2-Morpholinoethyl 8-fluoro-6-hydroxy-2,2-dimethyl-2H-benzo[h]chromene-5-carboxylate]	36.6 ± 9.4%	61.1 ± 10.9%				
41 % Remain	57 % Remain	9 % Remain	18 % Remain	100 % Remain	55 % Remain	Cc1ccc2c3c(c(C(=O)OCCN4CCOCC4)c(O)c2c1)C=CC(C)(C)O3 [15b, 2-Morpholinoethyl 6-hydroxy-2,2,8-trimethyl-2H-benzo[h]chromene-5-carboxylate]	24.9 ± 3.5%	54.3 ± 6.5%				

The remaining lines, values behind:

SMILES	Metabolic Stability (% Remain, 30 min) Human [3]	Metabolic Stability (% Remain, 30 min) Dog [4]	Metabolic Stability (% Remain, 30 min) Rat [5]	Metabolic Stability (% Remain, 30 min) Mouse [6]	Plasma Stability (% Remain, 2 h) Human [7]	Plasma Stability (% Remain, 2 h) Rat [8]	inhibition at 10 µM [1]	inhibition at 10 µM [2]	IC50 (hERG channel)	IC50 (hERG channel; [9])	inhibition of TNF-α-induced monocyte-epithelial adhesion ([1]; 10 μM)	inhibition of IL-6-induced monocyte-epithelial adhesion ([2]; 10 μM)
CN1CCN(CCCOC(=O)c2c3c(c4ccccc4c2O)OC(C)(C)C=C3)CC1 [6i, 3-(4-Methylpiperazin-1-yl)propyl 6-hydroxy-2,2-dimethyl-2H-benzo[h]chromene-5-carboxylate]							58.5 ± 6.4%	27.6 ± 4.2%	5.3 µM	5 µM		
CN1CCC(OC(=O)c2c3c(c4ccccc4c2O)OC(C)(C)C=C3)CC1 [6g, 1-Methylpiperidin-4-yl 6-hydroxy-2,2-dimethyl-2H-benzo[h]chromene-5-carboxylate]	78 % Remain	36 % Remain	23 % Remain	14 % Remain	100 % Remain	100 % Remain	54.8 ± 5.2%	38.9 ± 5%	> 10 µM			
CN1CCN(CCOC(=O)c2c3c(c4ccccc4c2O)OC(C)(C)C=C3)CC1 [6h, 2-(4-Methylpiperazin-1-yl)ethyl 6-hydroxy-2,2-dimethyl-2H-benzo[h]chromene-5-carboxylate]	76 % Remain	11 % Remain	23 % Remain	9 % Remain	79 % Remain	89 % Remain	42.2 ± 6.4%	18.2 ± 3.1%	3.3 µM	3 µM	good % inhibition	reduced % inhibition
CN1CCC[C@@H]1COC(=O)c1c2c(c3ccccc3c1O)OC(C)(C)C=C2 [6f, (R)-(1-Methylpyrrolidin-2-yl)methyl 6-hydroxy-2,2-dimethyl-2H-benzo[h]chromene-5-carboxylate]	58 % Remain	12 % Remain	13 % Remain	11 % Remain	100 % Remain	99 % Remain	48.3 ± 6.2%	38.2 ± 5.1%	> 10 µM			
CC1(C)C=Cc2c(C(=O)OCCCN3CCOCC3)c(O)c3ccccc3c2O1 [6e, 3-Morpholinopropyl 6-hydroxy-2,2-dimethyl-2H-benzo[h]chromene-5-carboxylate]	36 % Remain	42 % Remain	16 % Remain	24 % Remain	100 % Remain	94 % Remain	40.1 ± 3.5%	26.6 ± 5.1%	> 10 µM			
